Source: patent publication US9096593B2, “Compounds and methods for kinase modulation, and indications therefor” (Plexxikon Inc., priority 2009, dated 2015)

Experiments:
[1] = biological target: BCR-FMS/BaF3 cells (Homo sapiens, UniProt P07333); assay: BCR-FMS/BaF3 cell proliferation assay (ATPlite); type: cell-based; details: read-out: Cell based (IC50 μM) BCR/BaF3 (Fms); BCR-FMS/BaF3 cells, 3 days
Protocol: Compounds are assessed in a variety of cell based assays. For example BCR-FMS/BaF3, BCR-KIT/BaF3, M-NFS-60, M-07e, and BAC1.2F5 cell proliferation assays are used to assess inhibitory activity of Fms or Kit and MV-4-11 cell proliferation assay is used to assess inhibitory activity in Flt-3. […] On day 1, cells are counted, then centrifuged in a conical tube for 5 minutes at 1000 rpm. The supernatant is removed and cells are re-suspended as follows: • BCR-FMS/BaF3 and BCR-KIT/BaF3: resuspend in growth media+1 mg/mL G418 (without WEHI/IL-3) to 2×10^5 cells/mL. • M-NFS-60: resuspend in growth media +62 ng/mL murine M-CSF to 5×10^5 cells/mL. • M-07e: resuspend in growth media +200 ng/mL human SCF to 5×10^5 cells/mL. • BAC1.2F5: resuspend in growth media +36 ng/mL murine M-CSF to 1.4×10^5 cells/mL. • MV-4-11: resuspend in growth media +10% FBS to 5×10^5 cells/mL. […] On day 2, compound at a maximum concentration of 5 mM is serially diluted 1:3 for a total of 8 point titration with DMSO as a control. A 1 μL aliquot of each dilution point is added to 249 μL growth media and 50 μL is added to a well containing cells, providing 10 μM compound for the maximum concentration point. The cells are incubated for 3 days at 37° C. in 5% CO2. […] ATPlite is added to each well as follows: • BCR-FMS/BaF3 and BCR-KIT/BaF3: 25 μL per well. • M-NFS-60: 25 μL per well. • M-07c: 40 μL per well. • BAC1.2F5: 50 μL per well. • MV-4-11: 40 μL per well. The cells are incubated at room temperature for 10 minutes, then luminescence is read on Safire reader. The measured luminescence correlates directly with cell number, such that the reading as a function of compound concentration is used to determine the IC50 value.

[2] = biological target: Flt-3 kinase (Homo sapiens (Human), UniProt P36888); assay: Flt-3 kinase biochemical activity assay (AlphaScreen, biotin-(E4Y)10 phosphorylation); details: 100 μM ATP
Flt-3 kinase, sequence (P36888 27-993): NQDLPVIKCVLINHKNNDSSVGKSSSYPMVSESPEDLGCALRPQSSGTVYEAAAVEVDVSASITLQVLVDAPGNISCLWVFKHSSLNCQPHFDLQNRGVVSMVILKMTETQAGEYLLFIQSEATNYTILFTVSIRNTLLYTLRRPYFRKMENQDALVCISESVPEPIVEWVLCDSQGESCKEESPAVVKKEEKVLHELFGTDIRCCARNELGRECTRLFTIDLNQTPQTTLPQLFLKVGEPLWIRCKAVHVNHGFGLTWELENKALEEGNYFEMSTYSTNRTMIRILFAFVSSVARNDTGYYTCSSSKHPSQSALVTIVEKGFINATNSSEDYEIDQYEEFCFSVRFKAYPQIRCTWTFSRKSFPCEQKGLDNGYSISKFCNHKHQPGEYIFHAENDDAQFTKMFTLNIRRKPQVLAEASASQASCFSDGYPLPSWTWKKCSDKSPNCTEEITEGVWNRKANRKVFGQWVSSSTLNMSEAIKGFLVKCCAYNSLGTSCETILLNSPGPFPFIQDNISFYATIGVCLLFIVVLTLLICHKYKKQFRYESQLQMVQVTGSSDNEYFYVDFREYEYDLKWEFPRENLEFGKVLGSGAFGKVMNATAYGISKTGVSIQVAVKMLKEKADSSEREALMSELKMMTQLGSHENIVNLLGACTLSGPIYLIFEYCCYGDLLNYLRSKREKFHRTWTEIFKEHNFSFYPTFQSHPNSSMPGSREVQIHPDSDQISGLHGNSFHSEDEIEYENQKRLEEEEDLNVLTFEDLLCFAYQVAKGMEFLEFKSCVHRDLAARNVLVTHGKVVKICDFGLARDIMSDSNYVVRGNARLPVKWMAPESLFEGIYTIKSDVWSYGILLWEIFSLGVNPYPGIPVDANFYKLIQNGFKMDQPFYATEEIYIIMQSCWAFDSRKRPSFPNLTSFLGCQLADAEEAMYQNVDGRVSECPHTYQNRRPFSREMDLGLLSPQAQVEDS
Protocol: In one assay the biochemical activity IC50 values are determined with respect to inhibition of Flt-3 kinase activity, where inhibition of phosphorylation of a peptide substrate is measured as a function of compound concentration. Compounds to be tested, dissolved in DMSO (1 μL), are added to a white 384-well plate (Costar #3705). Working stocks of Flt-3 kinase (Invitrogen), biotin-(E4Y)10 substrate (Upstate Biotech, Cat#12-440), and ATP (Sigma, Cat#A-3377) are prepared in 25 mM Hepes pH 7.5, 5 mM MgCl2, 5 mM MnCl2, 1 mM DTT, and 0.01% Tween-20. All components are added to the 384-well plate for a final concentration of 1 ng/well Flt-3, 30 nM biotin-(E4Y)10 and 100 μM ATP in a volume of 20 μL. Each sample is at 5% DMSO. The plate is then incubated for 1 hour at room temperature. Just before use, working stocks of donor and acceptor beads from the AlphaScreen PY20 Detection Kit (PerkinElmer, Cat#676601M) are prepared in 25 mM Hepes pH 7.5, pH 7.4, 100 mM EDTA. 0.3% BSA. To stop the reaction, the plate is uncovered in the dark and 5 μL of Donor Beads solution (Streptavidin beads) is added to each well. The plate is incubated at room temperature for 20 minutes. Five microliters of Acceptor Beads solution (PY20 coated beads) are then added to each well. The final concentration of each bead is 10 μg/mL. The plates are incubated at room temperature for 60 minutes. Fluorescence signal is recorded on the Envision reader. Phosphorylated substrate results in binding of the PY20 antibody and association of the donor and acceptor beads such that signal correlates with kinase activity. The signal vs. compound concentration is used to determine the IC50.

[3] = biological target: Fms kinase (Homo sapiens (Human), UniProt P07333); assay: Fms kinase biochemical activity assay (AlphaScreen, biotin-(E4Y)10 phosphorylation); details: 100 μM ATP; read-out: Biochemical (IC50 μM) Fms
Fms kinase, sequence (P07333 20-972): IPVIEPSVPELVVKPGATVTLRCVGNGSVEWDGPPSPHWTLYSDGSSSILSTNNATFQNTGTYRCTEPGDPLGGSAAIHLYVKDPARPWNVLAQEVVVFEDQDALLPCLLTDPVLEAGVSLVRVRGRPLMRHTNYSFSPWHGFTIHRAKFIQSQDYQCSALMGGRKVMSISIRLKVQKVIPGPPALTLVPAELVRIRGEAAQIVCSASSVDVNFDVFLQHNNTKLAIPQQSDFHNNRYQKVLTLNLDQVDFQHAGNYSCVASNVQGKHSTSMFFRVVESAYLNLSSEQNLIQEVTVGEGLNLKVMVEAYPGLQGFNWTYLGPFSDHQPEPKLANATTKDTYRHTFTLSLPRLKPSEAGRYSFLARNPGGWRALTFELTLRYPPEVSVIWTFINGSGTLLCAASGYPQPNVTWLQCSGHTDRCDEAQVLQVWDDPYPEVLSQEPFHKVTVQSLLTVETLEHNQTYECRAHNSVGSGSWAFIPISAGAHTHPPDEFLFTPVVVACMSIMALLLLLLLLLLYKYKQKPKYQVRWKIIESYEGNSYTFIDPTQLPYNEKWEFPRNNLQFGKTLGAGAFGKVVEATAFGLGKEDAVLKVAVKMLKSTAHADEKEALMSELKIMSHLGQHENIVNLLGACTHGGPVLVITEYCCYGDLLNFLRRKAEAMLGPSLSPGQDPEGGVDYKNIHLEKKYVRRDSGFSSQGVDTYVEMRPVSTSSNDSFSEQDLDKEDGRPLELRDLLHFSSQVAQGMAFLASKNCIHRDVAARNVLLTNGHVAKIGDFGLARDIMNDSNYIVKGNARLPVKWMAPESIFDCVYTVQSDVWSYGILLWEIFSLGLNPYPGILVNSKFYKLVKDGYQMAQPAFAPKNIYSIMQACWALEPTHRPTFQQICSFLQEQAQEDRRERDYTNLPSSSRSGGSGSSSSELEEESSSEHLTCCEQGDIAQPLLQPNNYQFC
Protocol: In one assay the biochemical activity IC50 values are determined with respect to inhibition of Fms kinase activity, where inhibition of phosphorylation of a peptide substrate is measured as a function of compound concentration. Compounds to be tested, dissolved in DMSO (1 μL), are added to a white 384-well plate (Costar #3705). Working stocks of Fms kinase (Invitrogen #PV3249), biotin-(E4Y)10 substrate (Upstate Biotech, Cat#12-440), and ATP (Sigma, Cat#A-3377) are prepared in 25 mM Hepes pH 7.5, 0.5 mM MgCl2, 2 mM MnCl2, 2 mM DTT, 0.01% BSA, and 0.01% Tween-20. All components are added to the 384-well plate for a final concentration of 1 ng/well Fms, 30 nM biotin-(E4Y)10 (Upstate Biotechnology) and 100 μM ATP in a volume of 20 μL. Each sample is at 5% DMSO. The plate is then incubated for 20 minutes at 30° C. Just before use, working stocks of donor and acceptor beads from the AlphaScreen PY20 Detection Kit (PerkinElmer, Cat#676601M) are prepared in 25 mM Hepes pH 7.5, pH 7.4, 100 mM EDTA, 0.01% BSA. To stop the reaction, the plate is uncovered in the dark and 5 μL of Donor Beads solution (Streptavidin beads) is added to each well. The plate is incubated at room temperature for 20 minutes. Five microliters of Acceptor Beads solution (PY20 coated beads) are then added to each well. The final concentration of each bead is 10 μg/mL. The plates are incubated at room temperature for 60 minutes. Fluorescence signal is recorded on the Envision reader. […] The signal vs. compound concentration is used to determine the IC50.

Measured: IC50

BCR-FMS/BaF3 cells, sequence (P07333 20-972 limits assumed, change not shown): as the sequence (P07333 20-972) above

FC(F)(F)c1cnc2[nH]cc(Cc3ccc(NCc4ccc(C(F)(F)F)nc4)nc3)c2c1 [Compound P-1644, (6-Trifluoromethyl-pyridin-3-ylmethyl)-[5-(5-trifluoromethyl-1H-pyrrolo[2,3-b]pyridin-3-ylmethyl)-pyridin-2-yl]-amine]
< 0.1 µM: all assays above

COc1ncc(CNc2ccc(Cc3c[nH]c4ncc(C(F)(F)F)cc34)c(F)n2)cc1F [Compound P-1646, (5-Fluoro-6-methoxy-pyridin-3-ylmethyl)-[6-fluoro-5-(5-trifluoromethyl-1H-pyrrolo[2,3-b]pyridin-3-ylmethyl)-pyridin-2-yl]-amine]
< 0.1 µM: all assays above

Fc1cc(CNc2ncc(Cc3c[nH]c4ncc(Cl)cc34)cn2)cc(C(F)(F)F)c1 [Compound P-2009, [5-(5-Chloro-1H-pyrrolo[2,3-b]pyridin-3-ylmethyl)-pyrimidin-2-yl]-(3-fluoro-5-trifluoromethyl-benzyl)-amine]
< 0.1 µM: all assays above
